# Article PMC4319692 (Molecular Pharmaceutics, 2014)
# Experiment: Metabolic stability in human liver microsomes
# Type: in vitro ADME
# Conditions: 10 μM, pooled human liver microsomes 1 mg/mL with cofactors, 2 h
compound,measurement,value
C[C@]12CC[C@H]3[C@@H](CCC4=CC(=O)CC[C@@]43C)[C@@H]1CC[C@@H]2O [testosterone],decrease (disappearance) of parent compound,more than 95%
